This passage reports inhibition results from patent US8686150B2 (Sanofi, priority 2011, dated 2014).

The structures appear in SMILES notation.

The target of the assay is T1, human full-length recombinant PKC βII (Homo sapiens, UniProt P05771).
T1 construct: Active human full-length recombinant PKC βII; purchased Invitrogen GmbH, Darmstadt, Germany
T1 sequence (P05771 1-673 isoform P05771-2): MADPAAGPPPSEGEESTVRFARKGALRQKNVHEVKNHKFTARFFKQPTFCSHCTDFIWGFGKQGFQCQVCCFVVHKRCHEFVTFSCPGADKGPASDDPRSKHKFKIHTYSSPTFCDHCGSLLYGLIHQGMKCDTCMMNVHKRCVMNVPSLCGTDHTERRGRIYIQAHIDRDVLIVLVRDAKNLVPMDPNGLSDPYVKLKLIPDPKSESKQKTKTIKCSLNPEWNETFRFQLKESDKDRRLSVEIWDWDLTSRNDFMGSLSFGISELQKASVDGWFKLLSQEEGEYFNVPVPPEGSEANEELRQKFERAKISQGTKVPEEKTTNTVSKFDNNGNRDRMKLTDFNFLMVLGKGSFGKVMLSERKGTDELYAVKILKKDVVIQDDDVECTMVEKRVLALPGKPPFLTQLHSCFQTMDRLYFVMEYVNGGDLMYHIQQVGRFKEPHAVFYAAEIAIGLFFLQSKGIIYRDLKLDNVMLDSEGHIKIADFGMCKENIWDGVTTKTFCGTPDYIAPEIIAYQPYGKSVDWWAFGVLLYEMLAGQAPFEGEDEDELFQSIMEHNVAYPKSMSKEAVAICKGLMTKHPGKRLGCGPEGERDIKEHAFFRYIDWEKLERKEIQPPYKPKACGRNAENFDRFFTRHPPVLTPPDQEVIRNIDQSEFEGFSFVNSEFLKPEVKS
The assay is described as follows: Determination of PKC βII inhibition (Caliper mobility-shift kinase assay, Fluorescein-RFARKGSLRQKNV peptide substrate). The class given is biochemical. The conditions noted are these: example compounds at a final concentration of 1.14 μM (±0.15 μM). Put shortly: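 Full-length PKC βII (30 ng/ml in pre-dilution) with PS/DAG/Ca2+ activators, pH 7.4; fluorescein peptide and ATP at 3 μM and 120 μM before mixing. Reaction ran 60 min at 32 °C, was EDTA-stopped, and was read by mobility shift. % inhibition came from product/(substrate+product) peak heights, tested at 1.14 μM final.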
Consider `Cc1n[nH]c2nc(-c3ccc(O)cc3)cc(C(=O)NC3CCC(N)CC3)c12` (stereo not shown) [Example 231, 6-(4-Hydroxy-phenyl)-3-methyl-1H-pyrazolo[3,4-b]pyridine-4-carboxylic acid (4-amino-cyclohexyl)-amide], for which the inhibition at 1.14 µM was 84%. Turning to `CCC[C@H]1CN(C(=O)c2cc(-c3ccc(O)c(F)c3)nc3[nH]nc(C)c23)CCN1` [Example 293, [6-(3-Fluoro-4-hydroxy-phenyl)-3-methyl-1H-pyrazolo[3,4-b]pyridin-4-yl]-((S)-3-propyl-piperazin-1-yl)-methanone], the inhibition at 1.14 µM came to 89%. As to `Cc1n[nH]c2nc(-c3ccc(O)cc3)cc(C(=O)N3CCNC[C@@H]3c3cccc(F)c3)c12` [Example 82, [(S)-2-(3-Fluoro-phenyl)-piperazin-1-yl]-[6-(4-hydroxy-phenyl)-3-methyl-1H-pyrazolo[3,4-b]pyridin-4-yl]-methanone], the inhibition at 1.14 µM is 92%. Turning to `Cc1n[nH]c2nc(-c3ccc(O)cc3)cc(C(=O)N3CCCC4(CCNC4)C3)c12` (stereo not shown) [Example 263, (2,7-Diaza-spiro[4.5]dec-7-yl)-[6-(4-hydroxy-phenyl)-3-methyl-1H-pyrazolo[3,4-b]pyridin-4-yl]-methanone], the inhibition at 1.14 µM was 65%. `CCC1CN(C(=O)c2cc(-c3ccc(O)cc3F)nc3[nH]nc(C)c23)C(CC)CN1` (stereo not shown) [Example 445, (2,5-Diethyl-piperazin-1-yl)-[6-(2-fluoro-4-hydroxy-phenyl)-3-methyl-1H-pyrazolo[3,4-b]pyridin-4-yl]-methanone]: the inhibition at 1.14 µM came out at 99%.

For `COc1cccc(C(CN)NC(=O)c2cc(-c3ccc(O)cc3)nc3[nH]nc(C)c23)c1` (stereo not shown) [Example 51, 6-(4-Hydroxy-phenyl)-3-methyl-1H-pyrazolo[3,4-b]pyridine-4-carboxylic acid [2-amino-1-(3-methoxy-phenyl)-ethyl]-amide], the inhibition at 1.14 µM was 85%. Regarding `COc1ccc(C(CNC(=O)c2cc(-c3ccc(O)cc3)nc3[nH]nc(C)c23)N(C)C)cc1` (stereo not shown) [Example 376, 6-(4-Hydroxy-phenyl)-3-methyl-1H-pyrazolo[3,4-b]pyridine-4-carboxylic acid [2-dimethylamino-2-(4-methoxy-phenyl)-ethyl]-amide], the inhibition at 1.14 µM turned out to be 64%. For `O=C(N[C@@H]1CN2CCC1CC2)c1cc(-c2ccc(O)cc2)nc2[nH]nc(C(F)(F)F)c12` [Example 412, 6-(4-Hydroxy-phenyl)-3-trifluoromethyl-1H-pyrazolo[3,4-b]pyridine-4-carboxylic acid [(S)-1-aza-bicyclo[2.2.2]oct-3-yl]-amide], the inhibition at 1.14 µM turned out to be 23%. With `Cc1n[nH]c2nc(-c3ccc(O)cc3)cc(C(=O)NCC3CCCNC3)c12` (stereo not shown) [Example 243, 6-(4-Hydroxy-phenyl)-3-methyl-1H-pyrazolo[3,4-b]pyridine-4-carboxylic acid (piperidin-3-ylmethyl)-amide], the inhibition at 1.14 µM turned out to be 78%. Turning to `CCc1n[nH]c2nc(-c3ccc(O)cc3)cc(C(=O)N3CCC4CNCC43)c12` (stereo not shown) [Example 167, [3-Ethyl-6-(4-hydroxy-phenyl)-1H-pyrazolo[3,4-b]pyridin-4-yl]-(hexahydro-pyrrolo[3,4-b]pyrrol-1-yl)-methanone], the inhibition at 1.14 µM came to 58%. The figure for `Cc1n[nH]c2nc(-c3ccc(O)cc3)cc(C(=O)N3CC4CCCN4CC3C)c12` (stereo not shown) [Example 284, [6-(4-Hydroxy-phenyl)-3-methyl-1H-pyrazolo[3,4-b]pyridin-4-yl]-(3-methyl-hexahydro-pyrrolo[1,2-a]pyrazin-2-yl)-methanone] is 66%. Turning to `Cc1n[nH]c2nc(-c3ccc(O)cc3)cc(C(=O)N3CCNCC3C(F)(F)F)c12` (stereo not shown) [Example 114, [6-(4-Hydroxy-phenyl)-3-methyl-1H-pyrazolo[3,4-b]pyridin-4-yl]-(2-trifluoromethyl-piperazin-1-yl)-methanone], the inhibition at 1.14 µM was determined as 87%.

Turning to `CCCC1(NC(=O)c2cc(-c3ccc(O)cc3)nc3[nH]nc(C)c23)CCCNC1` (stereo not shown) [Example 124, 6-(4-Hydroxy-phenyl)-3-methyl-1H-pyrazolo[3,4-b]pyridine-4-carboxylic acid (3-propyl-piperidin-3-yl)-amide], the inhibition at 1.14 µM was found to be 78%. Take `Cc1n[nH]c2nc(-c3ccc(O)cc3)cc(C(=O)NC3CCCC[C@@H]3N)c12` (mixture of isomers) [Example 123, 6-(4-Hydroxy-phenyl)-3-methyl-1H-pyrazolo[3,4-b]pyridine-4-carboxylic acid (trans-2-amino-cyclohexyl)-amide]: the inhibition at 1.14 µM came out at 75%. `Cc1n[nH]c2nc(-c3ccc(O)cc3)cc(C(=O)N3CC(C)(C)NCC3(C)C)c12` [Example 121, [6-(4-Hydroxy-phenyl)-3-methyl-1H-pyrazolo[3,4-b]pyridin-4-yl]-(2,2,5,5-tetramethyl-piperazin-1-yl)-methanone]: the inhibition at 1.14 µM turned out to be 99%.

Regarding `Cc1n[nH]c2nc(-c3ccc(O)cc3)cc(C(=O)NC3CNCC3c3ccccc3)c12` (stereo not shown) [Example 45, 6-(4-Hydroxy-phenyl)-3-methyl-1H-pyrazolo[3,4-b]pyridine-4-carboxylic acid (4-phenyl-pyrrolidin-3-yl)-amide], the inhibition at 1.14 µM was 84%.

On to `Cc1n[nH]c2nc(-c3ccc(O)cc3)cc(C(=O)N3CCNC(C4CC4)C3)c12` (stereo not shown) [Example 86, (3-Cyclopropyl-piperazin-1-yl)-[6-(4-hydroxy-phenyl)-3-methyl-1H-pyrazolo[3,4-b]pyridin-4-yl]-methanone], for which the inhibition at 1.14 µM was 96%.

Regarding `Cc1n[nH]c2nc(-c3ccc(O)cc3)cc(C(=O)N3CCNCC3(C)c3ccccc3)c12` (stereo not shown) [Example 1, [6-(4-Hydroxy-phenyl)-3-methyl-1H-pyrazolo[3,4-b]pyridin-4-yl]-(2-methyl-2-phenyl-piperazin-1-yl)-methanone], the inhibition at 1.14 µM turned out to be 98%. `Cc1n[nH]c2nc(-c3ccc(O)c(F)c3)cc(C(=O)N3CC4CCCN4CC3c3ccccc3)c12` (stereo not shown) [Example 369, [6-(3-Fluoro-4-hydroxy-phenyl)-3-methyl-1H-pyrazolo[3,4-b]pyridin-4-yl]-(3-phenyl-hexahydro-pyrrolo[1,2-a]pyrazin-2-yl)-methanone]: the inhibition at 1.14 µM came out at 34%. The figure for `Cc1n[nH]c2nc(-c3ccc(O)c(F)c3)cc(C(=O)NC3CCCN(C)C3)c12` (stereo not shown) [Example 355, 6-(3-Fluoro-4-hydroxy-phenyl)-3-methyl-1H-pyrazolo[3,4-b]pyridine-4-carboxylic acid (1-methyl-piperidin-3-yl)-amide] is 60%; for `Cc1n[nH]c2nc(-c3ccc(O)cc3)cc(C(=O)NCCNC(C)C)c12` [Example 50, 6-(4-Hydroxy-phenyl)-3-methyl-1H-pyrazolo[3,4-b]pyridine-4-carboxylic acid (2-isopropylamino-ethyl)-amide] it is 81%. `CCC[C@@H]1CN(C(=O)c2cc(-c3ccc(O)cc3F)nc3[nH]nc(C)c23)CCN1` [Example 420, [6-(2-Fluoro-4-hydroxy-phenyl)-3-methyl-1H-pyrazolo[3,4-b]pyridin-4-yl]-((R)-3-propyl-piperazin-1-yl)-methanone]: the inhibition at 1.14 µM was determined as 80%. For `Cc1n[nH]c2nc(-c3ccc(O)c(F)c3)cc(C(=O)NC3CNC3)c12` [Example 302, 6-(3-Fluoro-4-hydroxy-phenyl)-3-methyl-1H-pyrazolo[3,4-b]pyridine-4-carboxylic acid azetidin-3-ylamide], the inhibition at 1.14 µM came to 82%. Consider `Cc1n[nH]c2nc(-c3ccc(O)cc3)cc(C(=O)N3CCNCC3c3ccc(F)cc3F)c12` (stereo not shown) [Example 96, [2-(2,4-Difluoro-phenyl)-piperazin-1-yl]-[6-(4-hydroxy-phenyl)-3-methyl-1H-pyrazolo[3,4-b]pyridin-4-yl]-methanone], for which the inhibition at 1.14 µM is 98%. As for `CCc1n[nH]c2nc(-c3ccc(O)cc3)cc(C(=O)NC3CCCC(N)C3)c12` (stereo not shown) [Example 170, 3-Ethyl-6-(4-hydroxy-phenyl)-1H-pyrazolo[3,4-b]pyridine-4-carboxylic acid (3-amino-cyclohexyl)-amide], the inhibition at 1.14 µM was determined as 59%. The figure for `Cc1n[nH]c2nc(-c3ccc(O)c(Cl)c3)cc(C(=O)N3CCNCC3)c12` [Example 9, [6-(3-Chloro-4-hydroxy-phenyl)-3-methyl-1H-pyrazolo[3,4-b]pyridin-4-yl]-piperazin-1-yl-methanone] is 41%; for `Cc1n[nH]c2nc(-c3ccc(O)c(F)c3)cc(C(=O)N3CC[C@H](N)C3)c12` [Example 292, ((S)-3-Amino-pyrrolidin-1-yl)-[6-(3-fluoro-4-hydroxy-phenyl)-3-methyl-1H-pyrazolo[3,4-b]pyridin-4-yl]-methanone] it is 77%. Take `Cc1n[nH]c2nc(-c3ccc(O)cc3)cc(C(=O)NC(CN3CCCC3)c3ccccc3)c12` (stereo not shown) [Example 377, 6-(4-Hydroxy-phenyl)-3-methyl-1H-pyrazolo[3,4-b]pyridine-4-carboxylic acid (1-phenyl-2-pyrrolidin-1-yl-ethyl)-amide]: the inhibition at 1.14 µM was 69%.

With `Cc1n[nH]c2nc(-c3ccc(O)cc3)cc(C(=O)NC(C)(C)C(C)(C)N)c12` [Example 134, 6-(4-Hydroxy-phenyl)-3-methyl-1H-pyrazolo[3,4-b]pyridine-4-carboxylic acid (2-amino-1,1,2-trimethyl-propyl)-amide], the inhibition at 1.14 µM was 62%.

Consider `O=C(c1cc(-c2ccc(O)cc2)nc2[nH]nc(C(F)(F)F)c12)N1CCC2(CCNCC2)CC1` [Example 411, (3,9-Diaza-spiro[5.5]undec-3-yl)-[6-(4-hydroxy-phenyl)-3-trifluoromethyl-1H-pyrazolo[3,4-b]pyridin-4-yl]-methanone], for which the inhibition at 1.14 µM amounted to 24%. With `Cc1n[nH]c2nc(-c3ccc(O)cc3)cc(C(=O)NC3CCCC(N)C3)c12` (stereo not shown) [Example 254, 6-(4-Hydroxy-phenyl)-3-methyl-1H-pyrazolo[3,4-b]pyridine-4-carboxylic acid (3-amino-cyclohexyl)-amide], the inhibition at 1.14 µM was determined as 80%.
